Results on eight molecules are retold here after patent EP0298474B1, “Novel calcitonin derivative and salt thereof” (MITSUBISHI PETROCHEMICAL CO., LTD., priority 1987, dated 1992).

Positions of bridges follow the written chain, without caps; N, C: chain ends. Residues, ends and D or L forms follow the SMILES beside them.

Series [1] can be described thus: biological activity assay according to the method of Japanese Provisional Patent Publication No. 123500/1985. The class given is in vivo. The method, then: The crude (Oct¹, Cys(CA)⁷)-CCT obtained was dissolved in a 1 M acetic acid (5 mg/ml) and purified by the reverse phase high performance liquid chromatography. Chemcopack ODS-H (trade name, ø: 10 mm x 250 mm) column produced by Chemco Co. was used, with the eluents employed being water (100) - 10 % TFA (1) for the eluent A and water (40) -acetonitrile (60) - 10 % TFA (1) for the eluent B, and the elution was effected under the linear concentration gradient from the eluent A to the eluent B. Here, the numerals within bracckets represent volume ratios. The fraction corresponding to (Oct¹, Cys(CA)⁷)-CCT was collected and lyophilized to obtain 2.8 mg of white powder. The biological activity of the white powder obtained was assayed according to the method as described in Japanese Provisional Patent Publication No. 123500/1985. […]

Series [2] can be described thus: stability test in solution (heat treatment, remaining peak area by reverse phase HPLC). Type of series: physicochemical. Particulars: 0.1 M sodium citrate buffer (pH 6.0), 10 µg/ml, sealed tube at 80 °C for 24 hours; stated in words relative to Example 1.
Protocol: The (Oct¹, Cys(CA)⁷)-CCT was dissolved in 0.1 M sodium citrate buffer (pH 6.0) to a concentration of 10 µg/ml. One ml of this solution was left to stand in a sealed tube at 80 °C for 24 hours. By analysis according to the reverse phase HPLC by use of the measurement conditions (1), the eluted peak area A of the remaining (Oct¹, Cys(CA)⁷)-CCT was determined. Similarly, the eluted peak area B of the (Oct¹, Cys(CA)⁷)-CCT in the sample solution not subjected to the heat treatment was determined, and the ratio of A to B (%) was defined as the index.
Where [3] appears, read: method of Japanese Provisional Patent Publication No. 123500/1985.
The mark [4] stands for this setting: stated in words relative to (Oct¹, Cys(CA)⁷)-CCT of Example 1.

In series [1] (setting [3]), (Oct¹, Cys(Acm)⁷)-ECT gave a biological activity of 5400 MRC U/mg. Molecule (Oct¹, Ala³, Cys(CA)⁷)-CCT yielded a biological activity in series [1] (setting [3]) of 6100 MRC U/mg.

In the case of (Oct¹, Cys(CA)⁷)-CCT, the biological activity in series [1] (setting [3]) is listed as 5400 MRC U/mg; in series [1] (setting [4]), “equal to that obtained in Example 1”. For the molecule (Oct¹, Thr³, Cys(CA)⁷)-CCT, the biological activity in series [1] (setting [3]) was 7800 MRC U/mg.

(Oct¹, Cys⁷)-CCT: the biological activity entry in series [1] (setting [4]) is recorded as “substantially equal to those of (Oct¹, Cys(CA)⁷)-CCT of Example 1”. For the same molecule, the “stability (ratio of A to B (%), remaining peak area)” value in series [2] was “substantially equal to those of (Oct¹, Cys(CA)⁷)-CCT of Example 1”. (pGlu¹, Cys(CA)⁷)-CCT: the biological activity result in series [1] (setting [4]) is “substantially equal to those of (Oct¹, Cys(CA)⁷)-CCT of Example 1”. The “stability (ratio of A to B (%), remaining peak area)” value in series [2] was “substantially equal to those of (Oct¹, Cys(CA)⁷)-CCT of Example 1”. Molecule `CC(C)C[C@H](NC(=O)[C@H](CCCCN)NC(=O)CNC(=O)[C@H](CC(C)C)NC(=O)[C@@H](NC(=O)[C@@H]1CSSC[C@H](N)C(=O)N[C@@H](C)C(=O)N[C@@H](CO)C(=O)N[C@@H](CC(C)C)C(=O)N[C@@H](CO)C(=O)N[C@@H]([C@@H](C)O)C(=O)N1)C(C)C)C(=O)N[C@@H](CO)C(=O)N[C@@H](CCC(N)=O)C(=O)N[C@@H](CCC(=O)O)C(=O)N[C@@H](CC(C)C)C(=O)N[C@@H](Cc1c[nH]cn1)C(=O)N[C@@H](CCCCN)C(=O)N[C@@H](CC(C)C)C(=O)N[C@@H](CCC(N)=O)C(=O)N[C@H](C(=O)N[C@@H](Cc1ccc(O)cc1)C(=O)N1CCC[C@H]1C(=O)N[C@@H](CCCNC(=N)N)C(=O)N[C@H](C(=O)N[C@@H](CC(=O)O)C(=O)N[C@H](C(=O)NCC(=O)N[C@@H](C)C(=O)NCC(=O)N[C@H](C(=O)N1CCC[C@H]1C(N)=O)[C@@H](C)O)C(C)C)[C@@H](C)O)[C@@H](C)O` [natural type CCT, reference compound] (H-CASLSTCVLGKLSQELHKLQTYPRTDVGAGTP-NH2; disulfide 1-7) showed a biological activity in series [1] (setting [3]) of 4500 MRC U/mg.

On to (Oct¹, Cys(Acm)⁷)-CCT, for which, in series [1] (setting [3]), the biological activity is recorded as 5500 MRC U/mg.
